# According to patent publication US8822464B2, “N-aryl-piperazine derivatives and their use as positive allosteric modulators of mGluR5 receptors” (Boehringer Ingelheim International GmbH, priority 2011, dated 2014):
# Target: T1, human recombinant mGluR5 (Homo sapiens, UniProt P41594)
# T1 construct: expressed in transfected cells; host or cells: HEK 293 cell line; cultured with tetracycline, hygromycin and geneticin; tetracycline withdrawn 3-7 days before the assay
# Assay: positive modulation of mGluR5, calcium based FLIPR assay in HEK 293 cells
# Details: HEK 293 cell line expressing human recombinant mGluR5; peak height of Ca release fluorescence signal after glutamate at approximately 5% basal stimulation; nonlinear regression
# Experimental: The positive modulation of mGluR5 is measured in a HEK 293 cell line expressing human recombinant mGluR5 and is detected with calcium based FLIPR assay. The cells are cultured with DMEM supplemented with 10% FCS, 2 μg/mL tetracycline, 100 μg/mL hygromycin and 500 μg/mL gneticin. The cell culture media is exchanged for tetracycline-free cell culture media 3-7 days before the assay. One day before the assay the cell culture medium is exchanged to DMEM without glutamine and phenol red and supplemented with 10% FCS, 100 μg/mL hygromycin and 500 μg/mL geneticin. On the assay day, the medium of the subconfluent cultures is removed and the cells are detached by addition of 2.5 ml EDTA(0.02%) per 175 cm2 culture flask for 1 minute. The cells are resuspend in Ringer solution (140 mM NaCl, 5 mM KCl, 2.5 mM CaCl2, 1.5 mM MgCl2, 5 mM Glucose, 10 mM Hepes; adjusted to pH 7.4 with NaOH), pooled and Ringer solution added to adjust the volume to 50 mL. The cell suspension is centrifuged for 5 min at 1500 U/min (425 g). The supernatant is removed and the cells washed a second time with 50 ml fresh Ringer solution and centrifuged again as before. The supernatant is again removed and the pellet resuspended in Ringer solution to 1,000,000 cells/ml (1×10^6 cells/mL). The cells are plated onto BD BioCoat Poly-D-Lysine 384 well plates (20.000 cells/well; 20 μl/well). The lid covered plates are then incubated until use at 37° C./10% CO2. For dye loading, 20 μl of Calcium-4 assay kit solution (prepared according to the manufacturer's description in Ringer solution) are added to the cells and the plates are incubated for 80 min 37° C. and then 10 min at room temperature.
# Controls, Compound Dilution and Assay Execution:
# Each assay plate contained wells with “high” and “low” controls:
# Low controls 1% DMSO/ringer solution+basal glutamate activation (defined as 100% CTL).
# High controls 10 μM CDPPB+basal glutamate activation (defined as 200% CTL).
# Test compounds are dissolved and diluted in DMSO to 100-fold the desired concentrations. In a second step, the compounds are diluted in Ringer solution such that the compounds are 4-fold more concentrated than the desired final assay concentration. The final DMSO concentration was 1%.
# 20 μl of each compound solution are then transferred to the assay plate and the Ca2+ kinetic is measured to determine any intrinsic compound activity. After 5 min incubation in the FLIPR device, the second stimulation with 20 μl of glutamate in Ringer solution (glutamate concentration adjusted to approximately 5% basal stimulation of the maximal possible glutamate effect) is added and the kinetic Ca2+ response of the wells was measured for the modulation effect.
# The peak height of the Ca release related fluorescence signal (9-66) is used for the EC50. The EC50 of the modulation is calculated over a nonlinear regression with GraphPad Prism (Table 1).
# T1 sequence (P41594 21-1212): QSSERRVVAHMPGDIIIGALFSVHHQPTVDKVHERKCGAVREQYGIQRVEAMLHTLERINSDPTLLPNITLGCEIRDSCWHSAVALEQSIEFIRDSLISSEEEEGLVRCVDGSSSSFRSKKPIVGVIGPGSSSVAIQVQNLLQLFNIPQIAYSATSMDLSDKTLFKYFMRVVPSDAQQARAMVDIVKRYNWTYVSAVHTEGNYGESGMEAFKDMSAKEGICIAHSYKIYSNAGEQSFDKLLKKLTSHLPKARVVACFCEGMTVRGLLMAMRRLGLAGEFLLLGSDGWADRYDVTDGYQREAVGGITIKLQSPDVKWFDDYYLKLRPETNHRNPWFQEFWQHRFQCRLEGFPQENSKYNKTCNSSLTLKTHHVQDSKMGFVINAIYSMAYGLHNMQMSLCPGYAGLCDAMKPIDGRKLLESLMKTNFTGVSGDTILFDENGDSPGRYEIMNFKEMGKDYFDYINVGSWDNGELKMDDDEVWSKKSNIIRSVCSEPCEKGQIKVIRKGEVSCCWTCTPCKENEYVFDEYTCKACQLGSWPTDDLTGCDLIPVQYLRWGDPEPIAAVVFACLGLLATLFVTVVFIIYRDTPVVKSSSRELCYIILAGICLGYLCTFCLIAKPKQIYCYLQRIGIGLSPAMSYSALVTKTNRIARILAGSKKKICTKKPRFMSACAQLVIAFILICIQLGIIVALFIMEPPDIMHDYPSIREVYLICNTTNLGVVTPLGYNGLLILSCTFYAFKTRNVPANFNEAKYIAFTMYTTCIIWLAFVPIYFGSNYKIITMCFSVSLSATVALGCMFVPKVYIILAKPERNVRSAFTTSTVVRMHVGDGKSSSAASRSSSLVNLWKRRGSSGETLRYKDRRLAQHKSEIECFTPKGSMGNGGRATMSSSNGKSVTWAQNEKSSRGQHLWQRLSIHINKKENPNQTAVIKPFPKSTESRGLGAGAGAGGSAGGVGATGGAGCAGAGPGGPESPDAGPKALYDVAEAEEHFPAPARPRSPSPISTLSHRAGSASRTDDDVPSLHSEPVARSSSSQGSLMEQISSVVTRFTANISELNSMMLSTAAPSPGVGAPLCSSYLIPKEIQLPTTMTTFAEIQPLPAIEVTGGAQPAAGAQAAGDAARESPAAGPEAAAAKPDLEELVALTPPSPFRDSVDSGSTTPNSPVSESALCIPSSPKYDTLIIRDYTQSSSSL
row,SMILES,EC50
1,COc1cc(N2CCN(C(=O)Cn3nc(-c4ccc(C)cn4)cc3-c3ccccc3)CC2)ncn1 [Example 7.01.120],20 nM
2,Cc1cc(-c2cc(C3CCCCC3)n(CC(=O)N3CCN(c4cccnn4)CC3)n2)ccc1F [Example 7.01.38],100 nM
3,COc1ccnc(N2CCN(C(=O)Cn3nc(-c4ccc(F)c(C)c4)cc3C)CC2)c1 [Example 7.02.22],85 nM
4,COc1ccnc(N2CCN(C(=O)Cn3nc(-c4ccc(F)cc4)cc3-c3ccc(F)cc3)CC2)c1 [Example 7.01.16],32 nM
5,Cc1cc(-c2cc(C)n(CC(=O)N3CCN(c4ncnc5[nH]cnc45)CC3)n2)ccc1F [Example 7.02.25],92 nM
6,COc1cnc(N2CCN(C(=O)Cn3nc(-c4ccc(F)c(C)c4)cc3C(C)C)CC2)nc1 [Example 7.01.32],75 nM
7,Cc1cc(-c2cc(-c3ccccc3)n(CC(=O)N3CCN(c4ccccc4)CC3)n2)ccc1F [Example 7.02.27],243 nM
8,COc1ccc(-c2cc(C(C)C)n(CC(=O)N3CCN(c4cc(C)ccn4)CC3)n2)cc1C [Example 7.01.52],431 nM
9,COc1cc(N2CCN(C(=O)Cn3nc(-c4ccc(F)c(OC)c4)cc3-c3ccccc3)CC2)ncn1 [Example 7.01.152],26 nM
10,CCc1cc(-c2cccc(C)c2)nn1CC(=O)N1CCN(c2cc(OC)ncn2)CC1 [Example 7.01.97],181 nM
11,COc1cc(N2CCN(C(=O)Cn3nc(-c4ccc(OC)c(C)c4)cc3-c3ccccc3)CC2)ncn1 [Example 7.01.184],145 nM
12,COc1cnc(N2CCN(C(=O)Cn3nc(-c4ccc(C)c(C)c4)cc3-c3ccccc3)CC2)nc1 [Example 7.01.103],24 nM
13,CCc1cc(-c2ccc(F)c(C)c2)nn1CC(=O)N1CCN(c2cccc(OC)c2)CC1 [Example 7.01.145],216 nM
14,CCc1cc(-c2ccc(C)c(F)c2)nn1CC(=O)N1CCN(c2ncccn2)CC1 [Example 7.01.181],130 nM
15,COc1cc(N2CCN(C(=O)Cn3nc(-c4ccc(C)c(F)c4)cc3-c3ccccc3)CC2)ncn1 [Example 7.01.190],47 nM
16,O=C(Cn1nc(-c2ccccc2)cc1-c1cc(Cl)cs1)N1CCN(c2ncccn2)CC1 [Example 7.01.143],20 nM
17,COc1cc(N2CCN(C(=O)Cn3nc(-c4cccc(Cl)c4)cc3-c3ccccc3)CC2)ncn1 [Example 7.01.148],20 nM
18,N#Cc1ccc(N2CCN(C(=O)Cn3nc(-c4ccccc4)cc3-c3ccccc3)CC2)nc1 [Example 7.02.08],934 nM
19,COCc1cc(-c2ccc(F)c(C)c2)nn1CC(=O)N1CCN(c2cccnn2)CC1 [Example 7.02.19],1200 nM
20,Cc1nc(-c2cc(-c3ccccc3)n(CC(=O)N3CCN(c4ncccn4)CC3)n2)ccc1F [Example 7.01.154],11 nM
21,O=C(Cn1nc(-c2ccccc2)cc1-c1ccccc1)N1CCN(c2nccc(C(F)(F)F)n2)CC1 [Example 7.02.12],1260 nM
22,Cc1cccc(-c2cc(-c3ccccc3)n(CC(=O)N3CCN(c4ncccn4)CC3)n2)c1 [Example 7.01.165],4 nM
23,O=C(Cn1nc(-c2ccc(F)cn2)cc1-c1ccccc1)N1CCN(c2ccccn2)CC1 [Example 7.01.58],211 nM
24,COCCCc1cc(-c2ccc(F)c(C)c2)nn1CC(=O)N1CCN(c2ccccn2)CC1 [Example 7.01.108],1260 nM
25,CCCc1cc(-c2ccc(F)c(C)c2)nn1CC(=O)N1CCN(c2cc(OC)ccn2)CC1 [Example 7.01.80],45 nM
26,CCOc1ccccc1N1CCN(C(=O)Cn2nc(-c3ccccc3)cc2-c2ccccc2)CC1 [Example 7.01.11],1420 nM
27,COc1cnc(N2CCN(C(=O)Cn3nc(-c4cccc(Cl)c4)cc3-c3ccccc3)CC2)nc1 [Example 7.01.147],19 nM
28,COc1cc(-c2cc(C(C)C)n(CC(=O)N3CCN(c4ncc(Br)cn4)CC3)n2)ccc1F [Example 7.01.50],512 nM
29,CCc1cc(-c2cc(C)c(F)c(C)c2)nn1CC(=O)N1CCN(c2ncc(F)cn2)CC1 [Example 7.01.142],704 nM
30,COCc1cc(-c2ccc(F)c(C)c2)nn1CC(=O)N1CCN(c2ccccn2)CC1 [Example 7.02.16],237 nM
